Some test systems named below: NCI-H522 lung; COLO 205 colon; NCI-H226 lung; EKVX NSCLC; A549 NSCLC; MALME-3M melanoma; SK-MEL-5 melanoma; IGROV1 ovarian; SNB-75 CNS.
What all share (test): DTP human tumour cell line panel, 48 h

Each structure is given as a SMILES string.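 Growth conditions: 96-well plates. Treatment: test compound, 48 hours, 5 concentrations. Analysis: linear interpolation between bracketing concentrations; unreached endpoints set to highest concentration. GI50 marks 50% less growth. TGI marks complete inhibition of growth.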

Turning to `CN(C)CCNC(=O)c1cccc2ncc(-c3ccccc3)nc12`, the total growth inhibition concentration (TGI) (commonly the concentration at which net growth stops) in the assay on NCI-H522 lung is 21.1 µM; in the assay on COLO 205 colon it was 15.5 µM; in the assay with NCI-H226 lung, 31.3 µM; in the assay with EKVX NSCLC it was 34.3 µM; in the assay with A549 NSCLC it was above 74.9 µM; with MALME-3M melanoma, 26.5 µM. The TGI with SK-MEL-5 melanoma was 24.1 µM; in the assay on IGROV1 ovarian, above 74.6 µM; in the assay on SNB-75 CNS it was 32.9 µM.
Take `COCOCC[C@@H]1CC=CC(NC(=O)OCc2ccccc2)C1/C=C/C(=O)CCC1OCCO1` (stereo partly drawn): the TGI was 34.7 µM with NCI-H522 lung; 37.9 µM in the assay on COLO 205 colon; above 100 µM in the assay on NCI-H226 lung; above 100 µM in the assay on EKVX NSCLC; above 100 µM in the assay on A549 NSCLC; above 100 µM in the assay on MALME-3M melanoma. For the same compound, the concentration for total growth inhibition (TGI) is above 100 µM with SK-MEL-5 melanoma, above 100 µM in the assay with IGROV1 ovarian and above 90 µM in the assay with SNB-75 CNS.
In the case of `Cc1ccc(NC(=O)CC/C(CC(=O)C(C)(C)C)=N\Nc2ccc([N+](=O)[O-])cc2[N+](=O)[O-])cc1C`, the TGI with COLO 205 colon, in the assay with NCI-H226 lung, in the assay on EKVX NSCLC, in the assay on A549 NSCLC and in the assay with IGROV1 ovarian was above 100 µM in each case.
On to `C=C1C(=O)OC2C1C(OC(=O)/C(C)=C\C)CC1(CO1)C1C(O)C=C(C)C21O` (stereo not drawn), for which the TGI stood at 2.3 µM in the assay on NCI-H522 lung; 2.62 µM in the assay on COLO 205 colon; 26.5 µM with EKVX NSCLC; 40.6 µM in the assay with A549 NSCLC; 7.65 µM with MALME-3M melanoma; 17.7 µM with SK-MEL-5 melanoma. Moreover, the concentration for total growth inhibition (TGI) worked out at 29.7 µM in the assay with IGROV1 ovarian and 29.2 µM in the assay with SNB-75 CNS.
As to `COc1cc(/C=C\c2ccc(OC(C)=O)cc2)cc(OC)c1OC`, the concentration for total growth inhibition (TGI) was above 100 µM in the assay with NCI-H522 lung; 94.2 µM with COLO 205 colon; above 100 µM with NCI-H226 lung; above 100 µM in the assay on EKVX NSCLC; above 100 µM in the assay on A549 NSCLC; above 100 µM in the assay on MALME-3M melanoma. For the same compound, the TGI is above 100 µM in the assay on IGROV1 ovarian and 6.93 µM with SNB-75 CNS.
On to `CC(=O)O/N=C(Cl)/C(Cl)=N/OC(C)=O`, for which the TGI in the assay with NCI-H522 lung, in the assay with NCI-H226 lung, in the assay with EKVX NSCLC, in the assay with A549 NSCLC, in the assay on MALME-3M melanoma and in the assay on IGROV1 ovarian was above 100 µM throughout. The compound further registered a TGI in the assay with SNB-75 CNS above 100 µM.
For the compound `CN(C)CCC1(C2=CCCC2)CC/C(=C\c2ccccc2Cl)C1=O` (stereo not drawn), the TGI in the assay on COLO 205 colon came to 41 µM; in the assay on EKVX NSCLC, 29.3 µM; with A549 NSCLC, 28.4 µM; in the assay with MALME-3M melanoma, 28 µM; in the assay with SK-MEL-5 melanoma it was 26.7 µM; in the assay with IGROV1 ovarian it was 37.5 µM.
For `O=C(O)CCSC(=O)Nc1ccccc1Cl`, the TGI in the assay with COLO 205 colon, with NCI-H226 lung, in the assay on EKVX NSCLC, in the assay on A549 NSCLC, in the assay on MALME-3M melanoma and in the assay on SK-MEL-5 melanoma was above 100 µM throughout. In addition, the concentration for total growth inhibition (TGI) in the assay on IGROV1 ovarian and with SNB-75 CNS was above 100 µM throughout.
Take `OC1CCC[C@@H]1Sc1ccccc1` (stereo partly drawn): the concentration for total growth inhibition (TGI) in the assay with COLO 205 colon, with EKVX NSCLC, in the assay on A549 NSCLC, with SK-MEL-5 melanoma and in the assay on SNB-75 CNS was above 100 µM each time.
In the case of `Cn1nc(-c2ccccc2)c(C(=O)/C=C/c2ccc(F)cc2)c(N2CCOCC2)c1=O`, the TGI with NCI-H522 lung is 36.4 µM; with COLO 205 colon, 34.6 µM; in the assay on EKVX NSCLC it was 75 µM; in the assay on A549 NSCLC, 54.3 µM; in the assay on SK-MEL-5 melanoma it was 29.3 µM; in the assay on IGROV1 ovarian it was 39.3 µM.
Take `C/C(CCn1[nH]c(=O)ccc1=O)=N\Nc1ccc([N+](=O)[O-])cc1[N+](=O)[O-]`: the TGI with NCI-H226 lung, in the assay with EKVX NSCLC, in the assay with A549 NSCLC, in the assay with MALME-3M melanoma, with SK-MEL-5 melanoma and with IGROV1 ovarian was above 100 µM throughout. In the assay with SNB-75 CNS, this compound showed a TGI above 100 µM.
Consider `COC(=O)C(C(=O)C(=O)Nc1ccc(OC)cc1[N+](=O)[O-])c1nc2cc(C)c(C)cc2[nH]c1=O` (stereo not drawn), for which the TGI in the assay on NCI-H522 lung, with COLO 205 colon, in the assay with NCI-H226 lung, with EKVX NSCLC, with A549 NSCLC and in the assay on MALME-3M melanoma was above 100 µM each time. Further, the concentration for total growth inhibition (TGI) in the assay on SK-MEL-5 melanoma, with IGROV1 ovarian and in the assay with SNB-75 CNS was above 100 µM in each case.
As for `C#CCN(N=O)C(=O)NCCCC(NC(C)=O)C(=O)NCc1ccccc1` (stereo not drawn), the TGI in the assay on NCI-H522 lung, with COLO 205 colon, in the assay on NCI-H226 lung, with EKVX NSCLC, in the assay on A549 NSCLC and in the assay with MALME-3M melanoma was above 100 µM each time. The concentration for total growth inhibition (TGI) in the assay on SK-MEL-5 melanoma, in the assay on IGROV1 ovarian and in the assay with SNB-75 CNS was above 100 µM throughout.
For `Cc1c(C2Cc3ccccc3N2)c2ccccc2n1C` (stereo not drawn), the TGI in the assay with NCI-H522 lung, with COLO 205 colon, in the assay on NCI-H226 lung, with EKVX NSCLC, with A549 NSCLC and in the assay with MALME-3M melanoma was above 100 µM in each case. The total growth inhibition concentration (TGI) in the assay with SK-MEL-5 melanoma, in the assay on IGROV1 ovarian and in the assay with SNB-75 CNS was above 100 µM each time.
As to `Cc1nc(Nc2ccccc2)sc1C(=O)CC(=O)C(=O)NC12CC3CC(CC(C3)C1)C2`, the total growth inhibition concentration (TGI) in the assay with NCI-H522 lung was above 100 µM; with COLO 205 colon, above 100 µM; in the assay on NCI-H226 lung, above 100 µM; with EKVX NSCLC, 73 µM; with A549 NSCLC, above 100 µM; with MALME-3M melanoma, above 100 µM. Further, the TGI in the assay on SK-MEL-5 melanoma, in the assay on IGROV1 ovarian and in the assay with SNB-75 CNS was above 100 µM throughout.
Turning to `COC(=O)C(=O)C(C(=O)C=C(C)C)C(=O)C(=O)Nc1nc2ccc([N+](=O)[O-])cc2s1` (stereo not drawn), the TGI was 78.9 µM in the assay with NCI-H522 lung; above 100 µM in the assay on COLO 205 colon; above 100 µM in the assay on NCI-H226 lung; above 100 µM with EKVX NSCLC; above 100 µM in the assay on A549 NSCLC; above 100 µM in the assay with MALME-3M melanoma. Besides, the concentration for total growth inhibition (TGI) is above 100 µM with SK-MEL-5 melanoma, 66.4 µM in the assay with IGROV1 ovarian and 63.7 µM in the assay with SNB-75 CNS.
In the case of `NNC(=O)N/N=C1\C(=O)N(c2nccs2)C(=O)C(=O)C1c1nc2ccccc2s1` (stereo not drawn), the TGI in the assay on COLO 205 colon, in the assay on NCI-H226 lung, with EKVX NSCLC, with A549 NSCLC, in the assay with MALME-3M melanoma and in the assay on IGROV1 ovarian was above 100 µM each time. The compound further had a concentration for total growth inhibition (TGI) in the assay on SNB-75 CNS above 100 µM.
For `O=C(O)CCSC(=S)Nc1cccc(F)c1`, the concentration for total growth inhibition (TGI) is above 100 µM in the assay on COLO 205 colon; above 100 µM with NCI-H226 lung; 81.8 µM with EKVX NSCLC; above 100 µM in the assay with A549 NSCLC; above 100 µM in the assay on MALME-3M melanoma; 43.5 µM in the assay with SK-MEL-5 melanoma. Besides, the concentration for total growth inhibition (TGI) with IGROV1 ovarian was 80.9 µM; in the assay with SNB-75 CNS, above 100 µM.
As for `Nc1ccc2c(c1)Oc1c(F)c(F)cc3c(=O)c(C(=O)O)cn-2c13`, the total growth inhibition concentration (TGI) in the assay on NCI-H522 lung was above 100 µM; with COLO 205 colon, above 100 µM; in the assay on EKVX NSCLC, above 100 µM; in the assay on A549 NSCLC it was above 100 µM; in the assay with MALME-3M melanoma, above 100 µM; with SK-MEL-5 melanoma it was 47.9 µM. The compound further returned a concentration for total growth inhibition (TGI) in the assay with IGROV1 ovarian above 100 µM.
As to `CCOC(=O)c1c2cccccc2n2c(=O)cc(C)nc12`, the TGI in the assay on NCI-H522 lung, with COLO 205 colon, in the assay on NCI-H226 lung, in the assay on EKVX NSCLC, with A549 NSCLC and with IGROV1 ovarian was above 100 µM each time.
Consider `CC(=O)C1CCC2C3CC=C4CC(SC(=N)N)CCC4(C)C3CCC12C` (stereo not drawn), for which the GI50 (as a rule, the concentration at which growth is held to half of that of the control) in the assay on COLO 205 colon was 1.6 µM; in the assay on NCI-H226 lung, 2.9 µM; in the assay on EKVX NSCLC, 1.43 µM; with A549 NSCLC, 1.82 µM; in the assay on SK-MEL-5 melanoma it was 1.65 µM; with SNB-75 CNS it was 1.58 µM. Besides, the concentration for total growth inhibition (TGI) with COLO 205 colon came to 2.94 µM; in the assay on NCI-H226 lung it was 9.26 µM; with EKVX NSCLC it was 6.88 µM; in the assay with A549 NSCLC, 3.61 µM; in the assay with SK-MEL-5 melanoma, 3.01 µM; with SNB-75 CNS it was 4.15 µM.
Take `COc1ccc2c(c1)N(CCO)C1=C(C(=O)OC1)C2c1ccccc1` (stereo not drawn): the GI50 is 0.746 µM with NCI-H522 lung; 1.8 µM in the assay with COLO 205 colon; 1.55 µM in the assay on NCI-H226 lung; 2.39 µM with EKVX NSCLC; 2.12 µM in the assay on A549 NSCLC; 1.58 µM with SK-MEL-5 melanoma. Also, the GI50 with IGROV1 ovarian was 2.41 µM; in the assay on SNB-75 CNS, 1.01 µM. The concentration for total growth inhibition (TGI) in the assay with NCI-H522 lung was 3.33 µM; in the assay with COLO 205 colon it was 4.85 µM; in the assay with NCI-H226 lung, 19 µM; with EKVX NSCLC it was above 50 µM; in the assay on A549 NSCLC, above 50 µM; in the assay on SK-MEL-5 melanoma, 8.83 µM. For the same compound, the total growth inhibition concentration (TGI) in the assay with IGROV1 ovarian and in the assay with SNB-75 CNS was above 50 µM in each case.
For `CC1=C2[C@H](c3ccccc3)C3C=CC2(c2ccccc23)N(C(=O)C(c2ccccc2)c2ccccc2)C1=O` (stereo partly drawn), the concentration for total growth inhibition (TGI) with COLO 205 colon, in the assay with EKVX NSCLC, in the assay on A549 NSCLC, in the assay with MALME-3M melanoma, in the assay with SK-MEL-5 melanoma and in the assay on IGROV1 ovarian was above 100 µM in each case. The same compound returned a TGI in the assay with SNB-75 CNS above 100 µM.
On to `CCCCCCCCCCCCCC(=O)OCC1OC(n2cc(F)c(=O)[nH]c2=O)C(N)C(OC(=O)CCCCCCCCCCCCC)C1O` (stereo not drawn), for which the total growth inhibition concentration (TGI) in the assay on NCI-H522 lung, in the assay with COLO 205 colon, in the assay with EKVX NSCLC, with A549 NSCLC, in the assay on MALME-3M melanoma and in the assay with SK-MEL-5 melanoma was above 100 µM in each case. Besides, the concentration for total growth inhibition (TGI) in the assay with SNB-75 CNS is above 100 µM.
